Earlier results as cited in patent US20070123548A1, “Pth agonists” (priority 2004, published 2007).

Conditions: daily subcutaneous injection for up to 2 years

CC[C@H](C)[C@H](NC(=O)[C@H](CCC(=O)O)NC(=O)[C@H](CO)NC(=O)[C@@H](NC(=O)[C@@H](N)CO)C(C)C)C(=O)N[C@@H](CCC(N)=O)C(=O)N[C@@H](CC(C)C)C(=O)N[C@@H](CCSC)C(=O)N[C@@H](Cc1cnc[nH]1)C(=O)N[C@@H](CC(N)=O)C(=O)N[C@@H](CC(C)C)C(=O)NCC(=O)N[C@@H](CCCCN)C(=O)N[C@@H](Cc1cnc[nH]1)C(=O)N[C@@H](CC(C)C)C(=O)N[C@@H](CC(N)=O)C(=O)N[C@@H](CO)C(=O)N[C@@H](CCSC)C(=O)N[C@@H](CCC(=O)O)C(=O)N[C@@H](CCCN=C(N)N)C(=O)N[C@H](C(=O)N[C@@H](CCC(=O)O)C(=O)N[C@@H](Cc1c[nH]c2ccccc12)C(=O)N[C@@H](CC(C)C)C(=O)N[C@@H](CCCN=C(N)N)C(=O)N[C@@H](CCCCN)C(=O)N[C@@H](CCCCN)C(=O)N[C@@H](CC(C)C)C(=O)N[C@@H](CCC(N)=O)C(=O)N[C@@H](CC(=O)O)C(=O)N[C@H](C(=O)N[C@@H](Cc1cnc[nH]1)C(=O)N[C@@H](CC(N)=O)C(=O)N[C@@H](Cc1ccccc1)C(=O)O)C(C)C)C(C)C [PTH(1-34)]
Reduction of fracture incidence at non-vertebral sites: 40%
Reduction of fracture incidence at the spine: 65%
